According to US9302999B2, “Substituted triazoles as herbicides” (E. I. DU PONT DE NEMOURS AND COMPANY, priority 2012, dated 2016):

Assays:
Assay type in all cases: in vivo
[1] = test system: morningglory (Ipomoea spp.); assay: Test A pre-/postemergence: morningglory
Summary of the method: (§1)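 Pre: directed soil spray after planting in loam + sand. Post: same formulation (non-phytotoxic solvent + surfactant) on 1–2-leaf plants, 2–10 cm. Greenhouse ~10 d; visual injury 0–100 vs untreated.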

[2] = test system: velvetleaf (Abutilon theophrasti); assay: Test A pre-/postemergence: velvetleaf
Summary of the method: as §1

[3] = test system: blackgrass (Alopecurus myosuroides); assay: Test C pre-/postemergence: blackgrass
Summary of the method: (§2)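 Visual injury scored 0–100 (100 = complete control) against untreated controls after 13–15 greenhouse days. Surfactant-containing solvent formulations applied either to soil after sowing (loam/sand) or over 1- to 4-leaf plants, 2–18 cm tall.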

wild oat (Avena fatua) = assay: Test C pre-/postemergence: wild oat
Summary of the method: as §2

[4] = test system: galium (catchweed bedstraw, Galium aparine); assay: Test C pre-/postemergence: galium
Summary of the method: as §2

corn (Zea mays) = assay: Test C pre-/postemergence: corn
Summary of the method: as §2

[5] = test system: large crabgrass (Digitaria sanguinalis); assay: Test C pre-/postemergence: large crabgrass
Summary of the method: as §2

[6] = test system: johnsongrass (Sorghum halepense); assay: Test C pre-/postemergence: johnsongrass
Summary of the method: as §2

kochia (Kochia scoparia) = assay: Test C pre-/postemergence: kochia
Summary of the method: as §2

[7] = test system: pigweed (Amaranthus retroflexus); assay: Test C pre-/postemergence: pigweed
Summary of the method: as §2

[8] = test system: ragweed (common ragweed, Ambrosia elation); assay: Test C pre-/postemergence: ragweed
Summary of the method: as §2

[9] = test system: velvetleaf (Abutilon theophrasti); assay: Test C pre-/postemergence: velvetleaf
Summary of the method: as §2

[10] = Postemergence, 125 g ai/ha, 0 to 100 scale, 0 is no effect, 100 is complete control
[11] = Postemergence, 500 g ai/ha, 0 to 100 scale, 0 is no effect, 100 is complete control
[12] = Preemergence, 125 g ai/ha, 0 to 100 scale where 0 is no effect and 100 is complete control
[13] = Preemergence, 500 g ai/ha, 0 to 100 scale (0 no effect, 100 complete control)
[14] = Postemergence, 31 g ai/ha, scale 0 to 100 (0 no effect, 100 complete control)
[15] = Postemergence, 62 g ai/ha, scale 0 to 100 (0 no effect, 100 complete control)
[16] = Postemergence, 125 g ai/ha, scale 0 to 100, 0 no effect, 100 complete control
[17] = Postemergence, 250 g ai/ha, scale 0 to 100
[18] = Preemergence, 31 g ai/ha, scale 0 (no effect) to 100 (complete control)
[19] = Preemergence, 62 g ai/ha, scale of 0 to 100, 0 is no effect, 100 is complete control
[20] = Preemergence, 125 g ai/ha, scale 0 to 100, 0 no effect, 100 complete control
[21] = Preemergence, 250 g ai/ha, scale 0 to 100, 0 no effect, 100 complete control
[22] = Postemergence, 250 g ai/ha, scale 0 to 100 (0 no effect, 100 complete control)

**Q.** What does the source list for CCOc1nn(-c2ccc(F)cc2)nc1Cc1ccnc(C(F)F)c1 [Compound 195]?
**A.** Plant response rating, Morningglory [1, 10]: 80; Morningglory plant response rating [1, 11]: 100; Plant response rating, Morningglory [1, 12]: 50; Plant response rating, Morningglory [1, 13]: 60; Plant response rating, Velvetleaf [2, 10]: 90; Velvetleaf plant response rating [2, 11]: 100; Plant response rating, Velvetleaf [2, 12]: 70; Plant response rating, Velvetleaf [2, 13]: 80; Plant response rating, Blackgrass [3, 14]: 45; Plant response rating, Blackgrass [3, 15]: 70; Plant response rating, Blackgrass [3, 16]: 80; Plant response rating, Blackgrass [3, 17]: 80; Plant response rating, Blackgrass [3, 18]: 90; Plant response rating, Blackgrass [3, 19]: 90; Plant response rating, Blackgrass [3, 20]: 90; Plant response rating, Blackgrass [3, 21]: 90; Plant response rating, Oat, Wild (wild oat (Avena fatua); [14]): 60; Plant response rating, Oat, Wild (wild oat (Avena fatua); [15]): 75; Plant response rating, Oat, Wild (wild oat (Avena fatua); [16]): 80; Plant response rating, Oat, Wild (wild oat (Avena fatua); [22]): 85; Plant response rating, Oat, Wild (wild oat (Avena fatua); [18]): 80; Plant response rating, Oat, Wild (wild oat (Avena fatua); [19]): 90; Plant response rating, Oat, Wild (wild oat (Avena fatua); [21]): 90; Plant response rating, Galium [4, 14]: 80; Plant response rating, Galium [4, 15]: 95; Plant response rating, Galium [4, 16]: 95; Plant response rating, Galium [4, 22]: 95; Plant response rating, Galium [4, 18]: 10; Plant response rating, Galium [4, 19]: 80; Plant response rating, Galium [4, 20]: 90; Plant response rating, Galium [4, 21]: 95; Plant response rating, Corn (corn (Zea mays); [14]): 60; Plant response rating, Corn (corn (Zea mays); [15]): 75; Plant response rating, Corn (corn (Zea mays); [17]): 80; Plant response rating, Corn (corn (Zea mays); [18]): 0; Plant response rating, Corn (corn (Zea mays); [19]): 5; Plant response rating, Corn (corn (Zea mays); [20]): 15; Plant response rating, Corn (corn (Zea mays); [21]): 35; Plant response rating, Crabgrass, Large [5, 14]: 55; Plant response rating, Crabgrass, Large [5, 15]: 60; Plant response rating, Crabgrass, Large [5, 16]: 90; Plant response rating, Crabgrass, Large [5, 17]: 95; Plant response rating, Crabgrass, Large [5, 18]: 98; Plant response rating, Crabgrass, Large [5, 19]: 100; Plant response rating, Crabgrass, Large [5, 20]: 100; Plant response rating, Crabgrass, Large [5, 21]: 100; Plant response rating, Johnsongrass [6, 14]: 55; Plant response rating, Johnsongrass [6, 15]: 80; Plant response rating, Johnsongrass [6, 16]: 95; Plant response rating, Johnsongrass [6, 22]: 95; Plant response rating, Johnsongrass [6, 20]: 98; Plant response rating, Johnsongrass [6, 21]: 100; Plant response rating, Kochia (kochia (Kochia scoparia); [14]): 75; Plant response rating, Kochia (kochia (Kochia scoparia); [15]): 85; Plant response rating, Kochia (kochia (Kochia scoparia); [16]): 90; Plant response rating, Kochia (kochia (Kochia scoparia); [22]): 95; Plant response rating, Kochia (kochia (Kochia scoparia); [18]): 60; Plant response rating, Kochia (kochia (Kochia scoparia); [19]): 75; Plant response rating, Kochia (kochia (Kochia scoparia); [21]): 95; Plant response rating, Pigweed [7, 14]: 95; Plant response rating, Pigweed [7, 15]: 95; Plant response rating, Pigweed [7, 16]: 98; Plant response rating, Pigweed [7, 22]: 98; Plant response rating, Pigweed [7, 18]: 98; Plant response rating, Pigweed [7, 19]: 98; Plant response rating, Pigweed [7, 20]: 100; Plant response rating, Pigweed [7, 21]: 100; Plant response rating, Ragweed [8, 15]: 50; Plant response rating, Ragweed [8, 16]: 70; Plant response rating, Ragweed [8, 22]: 85; Plant response rating, Ragweed [8, 18]: 15; Plant response rating, Ragweed [8, 19]: 20; Plant response rating, Ragweed [8, 20]: 20; Plant response rating, Ragweed [8, 21]: 55; Plant response rating, Velvetleaf [9, 14]: 45; Plant response rating, Velvetleaf [9, 15]: 50; Plant response rating, Velvetleaf [9, 16]: 60; Plant response rating, Velvetleaf [9, 22]: 65; Plant response rating, Velvetleaf [9, 18]: 10; Plant response rating, Velvetleaf [9, 19]: 25; Plant response rating, Velvetleaf [9, 20]: 55; Plant response rating, Velvetleaf [9, 21]: 90
